melting point [°C]	SMILES
207 to 209	Cc1oc(-c2ccccc2)nc1COc1ccc(COc2ncccc2CC(=O)[O-])cc1.[Li+]
157 to 159	Cc1oc(-c2ccccc2)nc1COc1ccc(COc2ncccc2CC(=O)[O-])cc1.[K+]
90 to 91	CCOC(=O)CCc1cccc(OCc2ccc(OCc3nc(-c4ccccc4)oc3C)cc2)c1 [Example 2, ethyl 3-[3-[4-[(5-methyl-2-phenyl-4-oxazolyl)methoxy]benzyloxy]phenyl]propionate]
157 to 158	Cc1oc(-c2ccccc2)nc1COc1ccc(COc2cccc(CCC(=O)O)c2)cc1 [Example 3, 3-[3-[4-[(5-methyl-2-phenyl-4-oxazolyl)methoxy]benzyloxy]phenyl]propionic acid]
82 to 83	CCOc1ccc(OCc2ccc(OCc3nc(-c4ccccc4)oc3C)cc2)cc1CC(=O)OC [Example 4, methyl-2-[2-ethoxy-5-[4-[(5-methyl-2-phenyl-4-oxazolyl)methoxy]benzyloxy]phenyl]acetate]
122 to 123	CCOc1ccc(OCc2ccc(OCc3nc(-c4ccccc4)oc3C)cc2)cc1CC(=O)O [Example 5, 2-[2-ethoxy-5-[4-[(5-methyl-2-phenyl-4-oxazolyl)methoxy]benzyloxy]phenyl]acetic acid]
93 to 94	COC(=O)Cc1ccc(OCc2ccc(OCc3nc(-c4ccccc4)oc3C)cc2)cc1 [Example 8, methyl 2-[4-[4-[(5-methyl-2-phenyl-4-oxazolyl)methoxy]benzyloxy]phenyl]acetate]
166 to 167	Cc1oc(-c2ccccc2)nc1COc1ccc(COc2ccc(CC(=O)O)cc2)cc1 [Example 9, 2-[4-[4-[(5-methyl-2-phenyl-4-oxazolyl)methoxy]benzyloxy]phenyl]acetic acid]
98 to 99	Cc1oc(-c2ccccc2)nc1COc1ccc(COc2ccccc2CCC(=O)O)cc1 [Example 13, 3-[2-[4-[(5-methyl-2-phenyl-4-oxazolyl)methoxy]benzyloxy]phenyl]propionic acid]
80 to 81	COC(=O)Cc1cc(C)ccc1OCc1ccc(OCc2nc(-c3ccccc3)oc2C)cc1 [Example 14, methyl 2-[5-methyl-2-[4-[(5-methyl-2-phenyl-4-oxazolyl)methoxy]benzyloxy]phenyl]acetate]
194 to 195	Cc1oc(-c2ccccc2)nc1COc1ccc(COc2ccc(O)cc2CC(=O)O)cc1 [Example 16, 2-[5-hydroxy-2-[4-[(5-methyl-2-phenyl-4-oxazolyl)methoxy]benzyloxy]phenyl]acetic acid]
100 to 101	COC(=O)Cc1cc(Br)ccc1OCc1ccc(OCc2nc(-c3ccccc3)oc2C)cc1 [Example 19, methyl 2-[5-bromo-2-[4-[(5-methyl-2-phenyl-4-oxazolyl)methoxy]benzyloxy]phenyl]acetate]
162 to 163	Cc1oc(-c2ccccc2)nc1COc1ccc(COc2ccc(Br)cc2CC(=O)O)cc1 [Example 20, 2-[5-bromo-2-[4-[(5-methyl-2-phenyl-4-oxazolyl)methoxy]benzyloxy]phenyl]acetic acid]
111 to 112	COC(=O)Cc1cc(-c2ccccc2)ccc1OCc1ccc(OCc2nc(-c3ccccc3)oc2C)cc1 [Example 21, methyl 2-[2-[4-[(5-methyl-2-phenyl-4-oxazolyl)methoxy]benzyloxy]-5-phenylphenyl]acetate]
102 to 103	Cc1oc(-c2ccccc2)nc1COc1ccc(COc2ccc(-c3ccccc3)cc2CC(=O)O)cc1 [Example 22, 2-[2-[4-[(5-methyl-2-phenyl-4-oxazolyl)methoxy]benzyloxy]-5-phenylphenyl]acetic acid]
160 to 161	COC(=O)Cc1cc(OC)ccc1OCc1ccc(OCc2nc(-c3ccccc3)oc2C)cc1 [Example 23, methyl 2-[5-methoxy-2-[4-[(5-methyl-2-phenyl-4-oxazolyl)methoxy]benzyloxy]phenyl]acetate]
140 to 141	Cc1oc(-c2ccccc2)nc1COc1ccc(COc2ccc(OCc3ccccc3)cc2CC(=O)O)cc1 [Example 27, 2-[5-benzyloxy-2-[4-[(5-methyl-2-phenyl-4-oxazolyl)methoxy]benzyloxy]phenyl]acetic acid]
117 to 118	Cc1oc(-c2ccccc2)nc1COc1cccc(COc2ccccc2CC(=O)O)c1 [Example 31, 2-[2-[3-[(5-methyl-2-phenyl-4-oxazolyl)methoxy]benzyloxy]phenyl]acetic acid]
136 to 137	CCOc1ccc(OCc2cccc(OCc3nc(-c4ccccc4)oc3C)c2)cc1CCC(=O)O [Example 33, 3-[2-ethoxy-5-[3-[(5-methyl-2-phenyl-4-oxazolyl)methoxy]benzyloxy]phenyl]propionic acid]

melting point [°C]	SMILES
104 to 105	Cc1oc(-c2ccccc2)nc1COc1ccccc1COc1cccc(CC(=O)O)c1 [Example 34, 2-[3-[2-[(5-methyl-2-phenyl-4-oxazolyl)methoxy]benzyloxy]phenyl]acetic acid]
146 to 147	CCOc1ccc(OCc2ccccc2OCc2nc(-c3ccccc3)oc2C)cc1CCC(=O)O [Example 35, 3-[2-ethoxy-5-[2-[(5-methyl-2-phenyl-4-oxazolyl)methoxy]benzyloxy]phenyl]propionic acid]
139 to 140	Cc1oc(-c2ccccc2)nc1COc1ccc(COc2cncc(CC(=O)O)c2)cc1 [Example 38, 2-[5-[4-[(5-methyl-2-phenyl-4-oxazolyl)methoxy]benzyloxy]-3-pyridyl]acetic acid]
187 to 188	Cc1oc(-c2ccccc2)nc1COc1ccc(COc2ccc3ccccc3c2CC(=O)O)cc1 [Example 39, 2-[2-[4-[(5-methyl-2-phenyl-4-oxazolyl)methoxy]benzyloxy]-1-naphthyl]acetic acid]
77 to 78	COC(=O)Cc1ccccc1OCc1cncc(OCc2nc(-c3ccccc3)oc2C)c1 [Example 42, methyl 2-[2-[[5-[(5-methyl-2-phenyl-4-oxazolyl)methoxy]-3-pyridyl]methoxy]phenyl]acetate]
207 to 208	Cc1oc(-c2ccccc2)nc1COc1cncc(COc2ccccc2CC(=O)O)c1 [Example 43, 2-[2-[[5-[(5-methyl-2-phenyl-4-oxazolyl)methoxy]-3-pyridyl]methoxy]phenyl]acetic acid]
105 to 106	CCOC(=O)CCc1ccc(OCc2ccc(OCc3nc(-c4ccccc4)oc3C)cc2)cc1 [Example 44, ethyl 3-[4-[4-[(5-methyl-2-phenyl-4-oxazolyl)methoxy]benzyloxy]phenyl]propionate]
177 to 178	Cc1oc(-c2ccccc2)nc1COc1ccc(COc2ccc(CCC(=O)O)cc2)cc1 [Example 45, 3-[4-[4-[(5-methyl-2-phenyl-4-oxazolyl)methoxy]benzyloxy]phenyl]propionic acid]
86 to 87	CCOC(=O)CCc1c(OCc2ccc(OCc3nc(-c4ccccc4)oc3C)cc2)ccc2ccccc12 [Example 46, ethyl 3-[2-[4-[(5-methyl-2-phenyl-4-oxazolyl)methoxy]benzyloxy]-1-naphthyl]propionate]
161 to 162	Cc1oc(-c2ccccc2)nc1COc1ccc(COc2ccc3ccccc3c2CCC(=O)O)cc1 [Example 47, 3-[2-[4-[(5-methyl-2-phenyl-4-oxazolyl)methoxy]benzyloxy]-1-naphthyl]propionic acid]
154 to 155	COc1ccc(COc2ccccc2CC(=O)O)cc1OCc1nc(-c2ccccc2)oc1C [Example 49, 2-[2-[4-methoxy-3-[(5-methyl-2-phenyl-4-oxazolyl)methoxy]benzyloxy]phenyl]acetic acid]
90 to 91	Cc1oc(-c2ccccc2)nc1COc1ccc(COC(=O)Cc2cccc(OCc3ccc(OCc4nc(-c5ccccc5)oc4C)cc3)c2)cc1 [Example 53, 4-[(5-methyl-2-phenyl-4-oxazolyl)methoxy]benzyl 2-[3-[4-[(5-methyl-2-phenyl-4-oxazolyl)methoxy]benzyloxy]phenyl]acetate]
73 to 74	CCOC(=O)C=Cc1c(OCc2ccc(OCc3nc(-c4ccccc4)oc3C)cc2)ccc2ccccc12 [Example 54, ethyl 3-(2-(4-((5-methyl-2-phenyl-4-oxazolyl)methoxy)benzyloxy)-1-naphthyl)-2-propenoate]
145 to 146	Cc1oc(-c2ccccc2)nc1COc1ccccc1COc1ccccc1CC(=O)O [Example 56, 2-[2-[2-[(5-methyl-2-phenyl-4-oxazolyl)methoxy]benzyloxy]phenyl]acetic acid]
97 to 98	Cc1oc(-c2ccccc2)nc1COc1cccc(COc2cccc(CC(=O)O)c2)n1 [Example 64, 2-[3-[[6-[(5-methyl-2-phenyl-4-oxazolyl)methoxy]-2-pyridyl]methoxy]phenyl]acetic acid]
64 to 65	CCOC(=O)CCc1ccc(OCc2ccc(OCc3nc(-c4ccccc4)oc3C)cc2)cc1OCC [Example 65, ethyl 3-[2-ethoxy-4-[4-[(5-methyl-2-phenyl-4-oxazolyl)methoxy]benzyloxy]phenyl]propionate]
157 to 158	Cc1oc(-c2ccccc2)nc1COc1ccc(CSc2ccc(CCC(=O)O)cc2)cc1 [Example 67, 3-[4-[[4-[(5-methyl-2-phenyl-4-oxazolyl)methoxy]benzyl]sulfanyl]phenyl]propionic acid]
179 to 180	Cc1oc(-c2ccccc2)nc1COc1cccc(COc2ccc(CC(=O)O)cc2)c1 [Example 68, 2-[4-[3-[(5-methyl-2-phenyl-4-oxazolyl)methoxy]benzyloxy]phenyl]acetic acid]
173 to 174	Cc1oc(-c2ccccc2)nc1COc1ccccc1COc1ccc(CC(=O)O)cc1 [Example 69, 2-[4-[2-[(5-methyl-2-phenyl-4-oxazolyl)methoxy]benzyloxy]phenyl]acetic acid]

SMILES	melting point [°C]
COC(=O)Cc1ccccc1OCc1ccc(N(Cc2nc(-c3ccccc3)oc2C)C(=O)OC(C)(C)C)cc1 [Example 59, methyl 2-[2-[4-[(t-butoxycarbonyl)[(5-methyl-2-phenyl-4-oxazolyl)methyl]amino]benzyloxy]phenyl]acetate]	85 to 86

Reference: patent US7238716B2, “Alkanoic acid derivatives process for their production and use thereof” (Takeda Pharmaceuticals Company Limited, priority 2000, dated 2007)
